Laboratory results published in patent US11708348B2, “Protease inhibitors for treatment of coronavirus infections” (The Scripps Research Institute, priority 2021, dated 2023).
Read-outs that look alike come from different tables or passages of the source.

Tested on: SARS-CoV-2 strain USA-WA1/2020
Assay: microbe, parasite or virus in culture
Type: cell-based
Conditions: Severe acute respiratory syndrome coronavirus 2, HeLa-ACE2, 24 h, read-out: EC50, uM (Hela)
[1] = HeLa-ACE2 cells, SARS-CoV-2 infection, 24 h, class symbols

| Compound | EC50 [1] [µM] | further results |
| --- | --- | --- |
| CC1(C)[C@@H]2[C@@H](C(=O)N[C@@H](C[C@@H]3CCNC3=O)C(=O)COC(F)(F)F)N(C(=O)C34CC(C(F)F)(CO3)C4)C[C@@H]21 [Compound 322, (1R,2S,5S)-3-(4-(difluoromethyl)-2-oxabicyclo[2.1.1]-hexane-1-carbonyl)-6,6-dimethyl-N-((S)-3-oxo-1-((S)-2-oxopyrrolidin-3-yl)-4-(trifluoromethoxy)butan-2-yl)-3-azabicyclo-[3.1.0]hexane-2-carboxamide] | 0.05 to 0.2 | – |
| O=C1NCC[C@H]1C[C@H](NC(=O)[C@@H]1[C@H]2CCC[C@H]2CN1C(=O)C1OCCC1(F)F)C(=O)COC(F)(F)F (stereo partly drawn) [Compound 323, (1S,3aR,6aS)-2-(3,3-difluorotetrahydrofuran-2-carbonyl)-N-((S)-3-oxo-1-((S)-2-oxopyrrolidin-3-yl)-4-(trifluoromethoxy)butan-2-yl)octahydrocyclo-penta[c]pyrrole-1-carboxamide] | 0.05 to 0.2 | – |
| CC(C)C[C@H](NC(=O)C1OCCC1(F)F)C(=O)N[C@@H](C[C@@H]1CCNC1=O)C(=O)COC(F)(F)F (stereo partly drawn) [Compound 324, 3,3-difluoro-N-((S)-4-methyl-1-oxo-1-(((S)-3-oxo-1-((S)-2-oxopyrrolidin-3-yl)-4-(trifluoromethoxy)butan-2-yl)amino)pentan-2-yl)tetrahydrofuran-2-carboxamide] | 0.05 to 0.2 | – |
| O=C1NCC[C@H]1C[C@@H](NC(=O)[C@@H]1C[C@H]2C[C@H]2N1C(=O)[C@@H]1CCCO1)C(=O)COC(F)(F)F [Compound 326, (1R,3S,5R)-N-(3-oxo-1-((S)-2-oxopyrrolidin-3-yl)-4-(trifluoromethoxy)butan-2-yl)-2-((S)-tetrahydrofuran-2-carbonyl)-2-azabicyclo[3.1.0]-hexane-3-carboxamide] | – | EC50 (HeLa-ACE2 cells, SARS-CoV-2 infection, 24 h, bound printed in cell): > 1 µM |
| CC(C)(C)NC(=O)O[C@@H](C(=O)N1CC2(CC2)C[C@H]1C(=O)N[C@@H](C[C@@H]1CCNC1=O)C(=O)COC(F)(F)F)C(C)(C)C [Compound 327, (R)-3,3-dimethyl-1-oxo-1-((S)-6-(((S)-3-oxo-1-((S)-2-oxopyrrolidin-3-yl)-4-(trifluoromethoxy)butan-2-yl)carbamoyl)-5-azaspiro[2.4]heptan-5-yl)butan-2-yl tert-butylcarbamate] | 0.5 to 1 | – |
| CC(C)C[C@@H](OC(=O)NC(C)(C)C)C(=O)N1CC2(CC2)C[C@H]1C(=O)N[C@@H](C[C@@H]1CCNC1=O)C(=O)COC(F)(F)F [Compound 328, (R)-4-methyl-1-oxo-1-((S)-6-(((S)-3-oxo-1-((S)-2-oxopyrrolidin-3-yl)-4-(trifluoromethoxy)butan-2-yl)carbamoyl)-5-azaspiro[2.4]heptan-5-yl)pentan-2-yl tert-butylcarbamate] | < 0.05 | – |
| CC(C)C[C@@H](OC(=O)NC(C)C)C(=O)N1CC2(CC2)C[C@H]1C(=O)N[C@@H](C[C@@H]1CCNC1=O)C(=O)COC(F)(F)F [Compound 329, (R)-4-methyl-1-oxo-1-((S)-6-(((S)-3-oxo-l-((S)-2-oxopyrrolidin-3-yl)-4-(trifluoromethoxy)butan-2-yl)carbamoyl)-5-azaspiro[2.4]heptan-5-yl)pentan-2-yl isopropylcarbamate] | < 0.05 | – |
| CC(C)C[C@@H](OC(=O)NC1CCCCC1)C(=O)N1CC2(CC2)C[C@H]1C(=O)N[C@@H](C[C@@H]1CCNC1=O)C(=O)COC(F)(F)F [Compound 330, (R)-4-methyl-1-oxo-1-((S)-6-(((S)-3-oxo-l-((S)-2-oxopyrrolidin-3-yl)-4-(trifluoromethoxy)butan-2-yl)carbamoyl)-5-azaspiro[2.4]heptan-5-yl)pentan-2-yl cyclohexylcarbamate] | < 0.05 | – |
| CC(C)C[C@@H](OC(=O)Nc1ccccc1)C(=O)N1CC2(CC2)C[C@H]1C(=O)N[C@@H](C[C@@H]1CCNC1=O)C(=O)COC(F)(F)F [Compound 331, (R)-4-methyl-1-oxo-1-((S)-6-(((S)-3-oxo-l-((S)-2-oxopyrrolidin-3-yl)-4-(trifluoromethoxy)butan-2-yl)carbamoyl)-5-azaspiro[2.4]heptan-5-yl)pentan-2-yl phenylcarbamate] | < 0.05 | – |
| CCNC(=O)O[C@@H](C(=O)N1CC2(CC2)C[C@H]1C(=O)N[C@@H](C[C@@H]1CCNC1=O)C(=O)COC(F)(F)F)C(C)(C)C [Compound 332, (R)-3,3-dimethyl-1-oxo-l-((S)-6-(((S)-3-oxo-1-((S)-2-oxopyrrolidin-3-yl)-4-(trifluoromethoxy)butan-2-yl)carbamoyl)-5-azaspiro[2.4]heptan-5-yl)butan-2-yl ethylcarbamate] | – | EC50: 0.5 to 1 µM |
| CC(C)C[C@@H](OC(F)F)C(=O)N1CC2(CC2)C[C@H]1C(=O)N[C@@H](C[C@@H]1CCNC1=O)C(=O)COC(F)(F)F [Compound 333, (S)-5-((R)-2-(difluoromethoxy)-4-methylpentanoyl)-N—((S)-3-oxo-1-((S)-2-oxopyrrolidin-3-yl)-4-(trifluoromethoxy)butan-2-yl)-5-azaspiro[2.4]heptane-6-carboxamide] | < 0.05 | – |
| CC(C)C[C@@H](OCC(C)(C)O)C(=O)N1CC2(CC2)C[C@H]1C(=O)N[C@@H](C[C@@H]1CCNC1=O)C(=O)COC(F)(F)F [Compound 334, (S)-5-((R)-2-(2-hydroxy-2-methylpropoxy)-4-methylpentanoyl)-N-((S)-3-oxo-1-((S)-2-oxopyrrolidin-3-yl)-4-(trifluoromethoxy)butan-2-yl)-5-azaspiro[2.4]heptane-6-carboxamide] | 0.05 to 0.2 | – |
| CC[C@@H](OC(F)(F)F)C(=O)N1C[C@H]2[C@@H]([C@H]1C(=O)N[C@@H](C[C@@H]1CCNC1=O)C(=O)COC(F)(F)F)C2(C)C [Compound 335, (1R,2S,5S)-6,6-dimethyl-N-((S)-3-oxo-1-((S)-2-oxopyrrolidin-3-yl)-4-(trifluoromethoxy)butan-2-yl)-3-((R)-2-(trifluoromethoxy)butanoyl)-3-azabicyclo[3.1.0]-hexane-2-carboxamide] | < 0.05 | – |
| CC[C@@H](OC)C(=O)N1C[C@H]2[C@@H]([C@H]1C(=O)N[C@@H](C[C@@H]1CCNC1=O)C(=O)COC(F)(F)F)C2(C)C [Compound 336, (1R,2S,5S)-3-((R)-2-methoxybutanoyl)-6,6-dimethyl-N—((S)-3-oxo-1-((S)-2-oxopyrrolidin-3-yl)-4-(trifluoromethoxy)butan-2-yl)-3-azabicyclo[3.1.0]hexane-2-carboxamide] | 0.05 to 0.2 | – |
| CC[C@@H](OC)C(=O)N[C@@H](CC(C)C)C(=O)N[C@@H](C[C@@H]1CCNC1=O)C(=O)COC(F)(F)F [Compound 337, (S)-2-((R)-2-methoxybutanamido)-4-methyl-N-((S)-3-oxo-1-((S)-2-oxopyrrolidin-3-yl)-4-(trifluoromethoxy)butan-2-yl)pentanamide] | 0.05 to 0.2 | – |
| COC(CC(C)C)C(=O)N1CC2(CC2)C[C@H]1C(=O)N[C@@H](C[C@@H]1CCNC1=O)C(=O)COC(F)(F)F (stereo partly drawn) [Compound 338, (6S)-5-(2-methoxy-4-methylpentanoyl)-N-((S)-3-oxo-1-((S)-2-oxopyrrolidin-3-yl)-4-(trifluoromethoxy)butan-2-yl)-5-azaspiro[2.4]heptane-6-carboxamide] | < 0.05 | – |
| CO[C@@H](CC(C)C)C(=O)N1CC2(CC2)C[C@H]1C(=O)N[C@@H](C[C@@H]1CCNC1=O)C(=O)COC(F)(F)F [Compound 339, (S)-5-((S)-2-methoxy-4-methylpentanoyl)-N-((S)-3-oxo-1-((S)-2-oxopyrrolidin-3-yl)-4-(trifluoromethoxy)butan-2-yl)-5-azaspiro[2.4]heptane-6-carboxamide] | 0.05 to 0.2 | – |
| COC(OC)C(=O)N1CC2(CC2)C[C@H]1C(=O)N[C@@H](C[C@@H]1CCNC1=O)C(=O)COC(F)(F)F [Compound 340, (S)-5-(2,2-dimethoxyacetyl)-N—((S)-3-oxo-1-((S)-2-oxopyrrolidin-3-yl)-4-(trifluoromethoxy)butan-2-yl)-5-azaspiro[2.4]heptane-6-carboxamide] | 0.2 to 0.5 | – |
| CC(C)C[C@H](NC(=O)[C@H](O)C(C)(C)C)C(=O)N[C@@H](C[C@@H]1CCNC1=O)C(=O)COC(F)(F)F [Compound 341, (S)-2-((R)-2-hydroxy-3,3-dimethylbutanamido)-4-methyl-N-((S)-3-oxo-1-((S)-2-oxopyrrolidin-3-yl)-4-(trifluoromethoxy)butan-2-yl)pentanamide] | 0.05 to 0.2 | – |
| CC(C)(C)[C@@H](O)C(=O)N1CC2(CC2)C[C@H]1C(=O)N[C@@H](C[C@@H]1CCNC1=O)C(=O)COC(F)(F)F [Compound 342, (S)-5-((R)-2-hydroxy-3,3-dimethylbutanoyl)-N-((S)-3-oxo-1-((S)-2-oxopyrrolidin-3-yl)-4-(trifluoromethoxy)butan-2-yl)-5-azaspiro[2.4]heptane-6-carboxamide] | 0.05 to 0.2 | – |
| CC(C)(C)[C@@H](O)C(=O)N1C[C@H]2[C@@H]([C@H]1C(=O)N[C@@H](C[C@@H]1CCNC1=O)C(=O)COC(F)(F)F)C2(C)C [Compound 343, (1R,2S,5S)-3-((R)-2-hydroxy-3,3-dimethylbutanoyl)-6,6-dimethyl-N-((S)-3-oxo-1-((S)-2-oxopyrrolidin-3-yl)-4-(trifluoromethoxy)butan-2-yl)-3-azabicyclo[3.1.0]-hexane-2-carboxamide] | 0.05 to 0.2 | – |
| CC(C)(C)[C@H](O)C(=O)N1CC2(CC2)C[C@H]1C(=O)N[C@@H](C[C@@H]1CCNC1=O)C(=O)COC(F)(F)F [Compound 344, (S)-5-((S)-2-hydroxy-3,3-dimethylbutanoyl)-N-((S)-3-oxo-1-((S)-2-oxopyrrolidin-3-yl)-4-(trifluoromethoxy)butan-2-yl)-5-azaspiro[2.4]heptane-6-carboxamide] | < 0.05 | – |
| CC(C)(C)[C@H](O)C(=O)N1C[C@H]2[C@@H]([C@H]1C(=O)N[C@@H](C[C@@H]1CCNC1=O)C(=O)COC(F)(F)F)C2(C)C [Compound 345, (1R,2S,5S)-3-((S)-2-hydroxy-3,3-dimethylbutanoyl)-6,6-dimethyl-N-((S)-3-oxo-1-((S)-2-oxopyrrolidin-3-yl)-4-(trifluoromethoxy)butan-2-yl)-3-azabicyclo-[3.1.0]hexane-2-carboxamide] | < 0.05 | – |
